Assay results taken from patent US6436441B1, “Hydrogel-forming sustained-release preparation” (Yamanouchi Pharmaceutical Co., Ltd., priority 1992, dated 2002).

Conditions: JP method, 25 ± 5° C.; the additive itself

For `O=C(CO)[C@@H](O)[C@H](O)[C@H](O)CO` [D-Fructose], the “Solubility (volume of water required for dissolving 1 gram)” value was 1 mL.
